Reference: ChEMBL document CHEMBL3885861, “Open TG-GATES”

Species on record: Rattus norvegicus
Test: Open TG-GATES - Regimen: Daily Repeat
Type: toxicity, organism-based, Sprague-Dawley
Design: regimen Daily Repeat, gender Male, age 6 weeks
Details: in vivo, iv, route intravenous injection; for APTT / Bas / Eos / Fbg / Hb / Ht / Lym / MCH / MCHC / MCV / Mono / Neu / PT / Plat / RBC / Ret / WBC: tissue Blood; for KIDNEY_L / KIDNEY_R / KIDNEY_TOTAL: tissue Kidney; for LIVER: tissue Liver; for A/G / ALP / ALT / AST / BUN / CRE / Ca / Cl / DBIL / GLC / IP / K / LDH / Na / PL / RALB / TBIL / TC / TG / TP / gamma-GTP: tissue Plasma
[1] = 0 mg/kg, 72 h, dose level Control, time 3 day
[2] = 0 mg/kg, […], dose level Control, time 7 day
[3] = 0 mg/kg, […], dose level Control, time 14 day
[4] = 0 mg/kg, […], dose level Control, time 28 day
[5] = 4 mg/kg, 72 h, dose level Low, time 3 day
[6] = 4 mg/kg, […], dose level Low, time 7 day
[7] = 4 mg/kg, […], dose level Low, time 14 day
[8] = 4 mg/kg, […], dose level Low, time 28 day

CN(C)c1ncnc2c1ncn2[C@@H]1O[C@H](CO)[C@@H](N)[C@H]1O [PUROMYCIN AMINONUCLEOSIDE]
TERMINAL_BW [1]: 230.5 g
APTT [1]: 22.1 s
Bas [1]: 0%
Eos [1]: 1%
Fbg [1]: 290.4 mg/dL
Hb [1]: 12.9 g/dL
Ht [1]: 37.6%
Lym [1]: 76.8%
MCH [1]: 21.1 pg
MCHC [1]: 34.2%
MCV [1]: 61.7 fL
Mono [1]: 2.6%
Neu [1]: 18.8%
PT [1]: 16.1 s
Plat [1]: 127.4 x10_4/uL
RBC [1]: 610 x10_4/ul
Ret [1]: 5.7%
WBC [1]: 113.8 x10_2/uL
KIDNEY_L [1]: 1 g
KIDNEY_R [1]: 1 g
KIDNEY_TOTAL [1]: 2 g
LIVER [1]: 10.3 g
A/G [1]: 1.3
ALP [1]: 1374.2 IU/L
ALT [1]: 40.6 IU/L
AST [1]: 74 IU/L
BUN [1]: 17.2 mg/dL
CRE [1]: 0.2 mg/dL
Ca [1]: 10.9 mg/dL
Cl [1]: 106.6 meq/L
DBIL [1]: 0 mg/dL
GLC [1]: 195.8 mg/dL
IP [1]: 6.8 mg/dL
K [1]: 4.7 meq/L
LDH [1]: 183.8 IU/L
Na [1]: 142.2 meq/L
PL [1]: 141.6 mg/dL
RALB [1]: 3.1 g/dL
TBIL [1]: 0.008 mg/dL
TC [1]: 73.2 mg/dL
TG [1]: 95.2 mg/dL
TP [1]: 5.4 g/dL
gamma-GTP [1]: 1.8 IU/L
TERMINAL_BW [2]: 262.2 g
TERMINAL_BW [3]: 322.5 g
TERMINAL_BW [4]: 396.1 g
APTT [2]: 22.5 s
Bas [2]: 0%
Eos [2]: 1%
Fbg [2]: 274.8 mg/dL
Hb [2]: 13.7 g/dL
Ht [2]: 39.4%
Lym [2]: 80.4%
MCH [2]: 21.3 pg
MCHC [2]: 34.9%
MCV [2]: 61 fL
Mono [2]: 2%
Neu [2]: 15.6%
PT [2]: 16 s
Plat [2]: 111 x10_4/uL
RBC [2]: 645.6 x10_4/ul
Ret [2]: 4.8%
WBC [2]: 97.9 x10_2/uL
APTT [3]: 22 s
Bas [3]: 0%
Eos [3]: 0.8%
Fbg [3]: 293.8 mg/dL
Hb [3]: 14 g/dL
Ht [3]: 39.5%
Lym [3]: 79.4%
MCH [3]: 20.6 pg
MCHC [3]: 35.5%
MCV [3]: 58.3 fL
Mono [3]: 3.2%
Neu [3]: 15%
PT [3]: 16.3 s
Plat [3]: 109.5 x10_4/uL
RBC [3]: 679 x10_4/ul
Ret [3]: 3.4%
WBC [3]: 120 x10_2/uL
APTT [4]: 25.7 s
Bas [4]: 0%
Eos [4]: 1%
Fbg [4]: 299.6 mg/dL
Hb [4]: 15.2 g/dL
Ht [4]: 42.3%
Lym [4]: 74.6%
MCH [4]: 19.6 pg
MCHC [4]: 35.8%
MCV [4]: 54.8 fL
Mono [4]: 3.4%
Neu [4]: 19.6%
PT [4]: 16.3 s
Plat [4]: 105.3 x10_4/uL
RBC [4]: 772.2 x10_4/ul
Ret [4]: 2.2%
WBC [4]: 111.8 x10_2/uL
KIDNEY_L [2]: 1 g
KIDNEY_R [2]: 1.1 g
KIDNEY_TOTAL [2]: 2.1 g
KIDNEY_L [3]: 1.2 g
KIDNEY_R [3]: 1.2 g
KIDNEY_TOTAL [3]: 2.4 g
KIDNEY_L [4]: 1.3 g
KIDNEY_R [4]: 1.3 g
KIDNEY_TOTAL [4]: 2.7 g
LIVER [2]: 12.2 g
LIVER [3]: 13.6 g
LIVER [4]: 14.9 g
A/G [2]: 1.2
ALP [2]: 1257.2 IU/L
ALT [2]: 35.4 IU/L
AST [2]: 63 IU/L
BUN [2]: 17.6 mg/dL
CRE [2]: 0.2 mg/dL
Ca [2]: 10.7 mg/dL
Cl [2]: 105.6 meq/L
DBIL [2]: 0 mg/dL
GLC [2]: 210.6 mg/dL
IP [2]: 7.3 mg/dL
K [2]: 4 meq/L
LDH [2]: 167.4 IU/L
Na [2]: 142 meq/L
PL [2]: 141.6 mg/dL
RALB [2]: 3 g/dL
TBIL [2]: 0.018 mg/dL
TC [2]: 67.2 mg/dL
TG [2]: 108.8 mg/dL
TP [2]: 5.5 g/dL
gamma-GTP [2]: 1.4 IU/L
A/G [3]: 1.3
ALP [3]: 1494.8 IU/L
ALT [3]: 36.8 IU/L
AST [3]: 69.4 IU/L
BUN [3]: 19.2 mg/dL
CRE [3]: 0.2 mg/dL
Ca [3]: 10.9 mg/dL
Cl [3]: 104.6 meq/L
DBIL [3]: 0 mg/dL
GLC [3]: 204.2 mg/dL
IP [3]: 7.2 mg/dL
K [3]: 4.3 meq/L
LDH [3]: 176.8 IU/L
Na [3]: 141.6 meq/L
PL [3]: 144.4 mg/dL
RALB [3]: 3.1 g/dL
TBIL [3]: 0.006 mg/dL
TC [3]: 65.8 mg/dL
TG [3]: 119.8 mg/dL
TP [3]: 5.6 g/dL
gamma-GTP [3]: 2 IU/L
A/G [4]: 1
ALP [4]: 1115.6 IU/L
ALT [4]: 31 IU/L
AST [4]: 60.5 IU/L
BUN [4]: 18.6 mg/dL
CRE [4]: 0.2 mg/dL
Ca [4]: 10.4 mg/dL
Cl [4]: 104.2 meq/L
DBIL [4]: 0 mg/dL
GLC [4]: 184.8 mg/dL
IP [4]: 6.1 mg/dL
K [4]: 4.2 meq/L
LDH [4]: 174 IU/L
Na [4]: 142.6 meq/L
PL [4]: 133.4 mg/dL
RALB [4]: 3.1 g/dL
TBIL [4]: 0.01 mg/dL
TC [4]: 68.2 mg/dL
TG [4]: 101.2 mg/dL
TP [4]: 6.1 g/dL
gamma-GTP [4]: 2 IU/L
TERMINAL_BW [5]: 232.9 g
APTT [5]: 20.8 s
Bas [5]: 0%
Eos [5]: 1%
Fbg [5]: 318.6 mg/dL
Hb [5]: 13.1 g/dL
Ht [5]: 38.3%
Lym [5]: 78.6%
MCH [5]: 21.3 pg
MCHC [5]: 34.3%
MCV [5]: 62.1 fL
Mono [5]: 3%
Neu [5]: 16.2%
PT [5]: 15.9 s
Plat [5]: 136.9 x10_4/uL
RBC [5]: 616 x10_4/ul
Ret [5]: 5.3%
WBC [5]: 98.6 x10_2/uL
KIDNEY_L [5]: 1 g
KIDNEY_R [5]: 1 g
KIDNEY_TOTAL [5]: 1.9 g
LIVER [5]: 10.2 g
A/G [5]: 1.3
ALP [5]: 1424.8 IU/L
ALT [5]: 40.8 IU/L
AST [5]: 73.4 IU/L
BUN [5]: 17.4 mg/dL
CRE [5]: 0.2 mg/dL
Ca [5]: 11.1 mg/dL
Cl [5]: 104.2 meq/L
DBIL [5]: 0 mg/dL
GLC [5]: 189.4 mg/dL
IP [5]: 7.6 mg/dL
K [5]: 4.4 meq/L
LDH [5]: 200.6 IU/L
Na [5]: 141.6 meq/L
PL [5]: 149.2 mg/dL
RALB [5]: 3 g/dL
TBIL [5]: 0.02 mg/dL
TC [5]: 76 mg/dL
TG [5]: 102.2 mg/dL
TP [5]: 5.5 g/dL
gamma-GTP [5]: 1.2 IU/L
TERMINAL_BW [6]: 256.3 g
TERMINAL_BW [7]: 310.3 g
TERMINAL_BW [8]: 371.4 g
APTT [6]: 21 s
Bas [6]: 0%
Eos [6]: 1.4%
Fbg [6]: 282.8 mg/dL
Hb [6]: 13.4 g/dL
Ht [6]: 38.8%
Lym [6]: 76.4%
MCH [6]: 20.5 pg
MCHC [6]: 34.4%
MCV [6]: 59.4 fL
Mono [6]: 2%
Neu [6]: 19.2%
PT [6]: 15.9 s
Plat [6]: 118.6 x10_4/uL
RBC [6]: 654.8 x10_4/ul
Ret [6]: 3.7%
WBC [6]: 112.4 x10_2/uL
APTT [7]: 23.5 s
Bas [7]: 0%
Eos [7]: 0.8%
Fbg [7]: 303.4 mg/dL
Hb [7]: 13.6 g/dL
Ht [7]: 38.9%
Lym [7]: 77.8%
MCH [7]: 20.7 pg
MCHC [7]: 35%
MCV [7]: 59.1 fL
Mono [7]: 2.4%
Neu [7]: 18%
PT [7]: 16.3 s
Plat [7]: 133.5 x10_4/uL
RBC [7]: 658 x10_4/ul
Ret [7]: 4.7%
WBC [7]: 105.4 x10_2/uL
APTT [8]: 23.1 s
Bas [8]: 0%
Eos [8]: 1.6%
Fbg [8]: 538.4 mg/dL
Hb [8]: 14.5 g/dL
Ht [8]: 40%
Lym [8]: 72.8%
MCH [8]: 20.2 pg
MCHC [8]: 36.3%
MCV [8]: 55.6 fL
Mono [8]: 3.2%
Neu [8]: 21.8%
PT [8]: 14.6 s
Plat [8]: 134.3 x10_4/uL
RBC [8]: 719.6 x10_4/ul
Ret [8]: 2.5%
WBC [8]: 156.1 x10_2/uL
KIDNEY_L [6]: 1 g
KIDNEY_R [6]: 1.1 g
KIDNEY_TOTAL [6]: 2.1 g
KIDNEY_L [7]: 1.2 g
KIDNEY_R [7]: 1.3 g
KIDNEY_TOTAL [7]: 2.5 g
KIDNEY_L [8]: 1.5 g
KIDNEY_R [8]: 1.4 g
KIDNEY_TOTAL [8]: 2.9 g
LIVER [6]: 11 g
LIVER [7]: 12.6 g
LIVER [8]: 16.8 g
A/G [6]: 1.2
ALP [6]: 1296.4 IU/L
ALT [6]: 37.8 IU/L
AST [6]: 67.8 IU/L
BUN [6]: 17 mg/dL
CRE [6]: 0.2 mg/dL
Ca [6]: 10.6 mg/dL
Cl [6]: 107.2 meq/L
DBIL [6]: 0 mg/dL
GLC [6]: 180.6 mg/dL
IP [6]: 6.7 mg/dL
K [6]: 4.1 meq/L
LDH [6]: 149.6 IU/L
Na [6]: 142.6 meq/L
PL [6]: 139.4 mg/dL
RALB [6]: 3 g/dL
TBIL [6]: 0.014 mg/dL
TC [6]: 73.4 mg/dL
TG [6]: 87.8 mg/dL
TP [6]: 5.5 g/dL
